Like-named read-outs stand apart in the source and are kept apart here.
Assays:
[1] = molecular target: T1, Mcl-1 (Mus musculus, UniProt P97287); test: Multifragment KTGS screen against Mcl-1 (5 TA x 38 SZ per well), LC-MS/MS; conditions: for KTGS hit call against Mcl-1: multifragment incubation, 10 µM Mcl-1, LC-MS/MS traces with vs without protein; for Amplification coefficient 5TA x 38SZ: multifragment KTGS, 190 combinations per well, 10 μM Mcl-1, 20 μM each fragment, pH 7.4, 37 °C, 10 h, peak area with protein / without protein
T1 sequence (P97287 whole entry, the tested form may be a part): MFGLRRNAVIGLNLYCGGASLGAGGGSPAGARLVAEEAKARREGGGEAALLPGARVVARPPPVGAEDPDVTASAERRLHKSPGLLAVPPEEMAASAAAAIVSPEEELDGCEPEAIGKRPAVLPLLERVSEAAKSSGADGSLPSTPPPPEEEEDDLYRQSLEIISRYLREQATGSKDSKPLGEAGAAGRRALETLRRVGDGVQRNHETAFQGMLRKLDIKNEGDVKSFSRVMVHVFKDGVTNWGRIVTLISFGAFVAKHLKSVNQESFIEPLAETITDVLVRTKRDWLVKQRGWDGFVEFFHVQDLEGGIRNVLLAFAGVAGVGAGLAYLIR

[2] = molecular target: GST-tagged mouse Mcl-1-(152–309) (Mus musculus, UniProt P97287); test: Fluorescence polarization competitive binding assay, GST-Mcl-1 / FITC-Bim-BH3; conditions: for inhibition at 100 µM: read-out: inhibition in the fluorescence polarization assay, fragments tested individually; for inhibition at 50 µM: compound at 50 µM
Chain of GST-tagged mouse Mcl-1-(152–309) (P97287 152-309): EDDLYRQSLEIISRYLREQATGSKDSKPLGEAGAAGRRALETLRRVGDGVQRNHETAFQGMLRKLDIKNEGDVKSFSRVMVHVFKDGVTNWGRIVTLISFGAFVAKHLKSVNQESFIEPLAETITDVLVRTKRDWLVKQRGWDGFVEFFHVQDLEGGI

[3] = molecular target: T1, Mcl-1; test: Binary KTGS incubation (1 TA x 1 SZ) with Mcl-1, LC-MS/MS; conditions: binary incubation mixtures with and without Mcl-1
[4] = FP, GST-Mcl-1 and fluorescein-labeled Bim BH3 peptide, read-out: IC50 on Mcl-1

Compound	KTGS hit call against Mcl-1 [1]	inhibition at 100 µM [2] [%]	inhibition at 50 µM ([2]; FP) [%]	Amplification coefficient 1TA x 1SZ [3]	Amplification coefficient 5TA x 38SZ [1]	IC50 [2, 4] [µM]	IC50 ([2]; IC50 on Mcl-1) [µM]
CC(=O)Nc1ccc(S(=O)(=O)NC(=O)Cn2c3ccccc3c3ccccc32)cc1 [SZ3TA15]	non-hit						
[N-]=[N+]=NS(=O)(=O)c1ccc(NCCSc2ccccc2)c([N+](=O)[O-])c1 [SZ4]		23					
COc1cc2c(cc1OC)C(c1ccccc1)N(Cc1ccc(S(=O)(=O)NC(=O)CCCN3C(=O)C(c4ccc(F)cc4F)=C(c4ccc(F)cc4F)C3=O)cc1)CC2 (stereo not shown) [SZ8TA20, O=C(NS(C1=CC=C(CN2CCC(C=C(OC)C(OC)=C3)=C3C2C4=CC=CC=C4)C=C1)(=O)=O)CCCN5C(C(C6=C(F)C=C(F)C=C6)=C(C7=CC=C(F)C=C7F)C5=O)=O]			19.2	10	20		
[N-]=[N+]=NS(=O)(=O)c1ccc(CN(CCSc2ccccc2)Cc2ccc(S(=O)(=O)NC(=O)c3ccc(CCc4ccccn4)cc3)cc2)cc1 [SZ9TA17, O=C(NS(C1=CC=C(CN(CC2=CC=C(S(=O)(N=[N+]=[N-])=O)C=C2)CCSC3=CC=CC=C3)C=C1)(=O)=O)C4=CC=C(CCC5=NC=CC=C5)C=C4]			> 99	18	22	20.4	
[N-]=[N+]=NS(=O)(=O)c1ccc(CN(CCSc2ccccc2)Cc2ccc(S(=O)(=O)NC(=O)c3ccc(-c4ccccn4)cc3)cc2)cc1 [SZ9TA25, O=C(NS(C1=CC=C(CN(CCSC2=CC=CC=C2)CC3=CC=C(S(=O)(N=[N+]=[N-])=O)C=C3)C=C1)(=O)=O)C4=CC=C(C5=NC=CC=C5)C=C4]			47.6	8	15		
[N-]=[N+]=NS(=O)(=O)c1ccc(CN(CCSc2ccccc2)Cc2ccc(S(=O)(=O)N=[N+]=[N-])cc2)cc1 [SZ9]		13					
NS(=O)(=O)c1ccc(CN(CCSc2ccccc2)Cc2ccc(S(=O)(=O)NC(=O)Cn3c4ccccc4c4ccccc43)cc2)cc1 [SZ10TA15, O=C(NS(C1=CC=C(CN(CC2=CC=C(S(=O)(N)=O)C=C2)CCSC3=CC=CC=C3)C=C1)(=O)=O)CN4C(C=CC=C5)=C5C6=C4C=CC=C6]			37.4	8	10		
NS(=O)(=O)c1ccc(CN(CCSc2ccccc2)Cc2ccc(S(=O)(=O)NC(=O)c3ccc(-c4ccccn4)cc3)cc2)cc1 [SZ10TA25, O=C(NS(C1=CC=C(CN(CCSC2=CC=CC=C2)CC3=CC=C(S(=O)(N)=O)C=C3)C=C1)(=O)=O)C4=CC=C(C5=NC=CC=C5)C=C4]			93.6	5	12		
NS(=O)(=O)c1ccc(CN(CCSc2ccccc2)Cc2ccc(S(=O)(=O)NC(=O)CC3Sc4ccccc4NC3=O)cc2)cc1 (stereo not shown) [SZ10TA34, O=C(NS(C1=CC=C(CN(CCSC2=CC=CC=C2)CC3=CC=C(S(=O)(N)=O)C=C3)C=C1)(=O)=O)CC4SC5=CC=CC=C5NC4=O]			64.1	6	7		
NS(=O)(=O)c1ccc(CN(CCSc2ccccc2)Cc2ccc(S(=O)(=O)NC(=O)c3ccc4oc(-c5ccccc5)cc4c3)cc2)cc1 [SZ10TA41, O=C(NS(C1=CC=C(CN(CCSC2=CC=CC=C2)CC3=CC=C(S(=O)(N)=O)C=C3)C=C1)(=O)=O)C4=CC(C=C(C5=CC=CC=C5)O6)=C6C=C4]			12.4	40	20		
NS(=O)(=O)c1ccc(CN(CCSc2ccccc2)Cc2ccc(S(=O)(=O)NC(=O)c3cccc(NCCc4ccccc4)c3)cc2)cc1 [SZ10TA44, O=C(NS(C1=CC=C(CN(CCSC2=CC=CC=C2)CC3=CC=C(S(=O)(N)=O)C=C3)C=C1)(=O)=O)C4=CC(NCCC5=CC=CC=C5)=CC=C4]			63.4	9	12		
CC(C)(C)c1ccc(-c2ccc(S(=O)(=O)NC(=O)c3ccccc3)cc2)cc1 [SZ11TA1]	non-hit						
CC(C)(C)c1ccc(-c2ccc(S(=O)(=O)NC(=O)c3ccc4c(ccn4Cc4ccc(C(F)(F)F)cc4C(F)(F)F)c3)cc2)cc1 [SZ11TA30, O=C(NS(C1=CC=C(C2=CC=C(C(C)(C)C)C=C2)C=C1)(=O)=O)C3=CC(C=CN4CC5=CC=C(C(F)(F)F)C=C5C(F)(F)F)=C4C=C3]			63.6	7	12		
Cn1cc(C(=O)C2CCCCC2)c2cc(C(=O)NS(=O)(=O)c3ccc(-c4ccc(C(C)(C)C)cc4)cc3)ccc21 [SZ11TA40, O=C(NS(C1=CC=C(C2=CC=C(C(C)(C)C)C=C2)C=C1)(=O)=O)C3=CC(C(C(C4CCCCC4)=O)=CN5C)=C5C=C3]			> 99	5.5	8	21.9	
CC1(C)CCN(c2ccc(C(=O)NS(=O)(=O)c3ccc(CNc4cccc([N+](=O)[O-])c4)cc3)cc2)CC1 [SZ12TA2, O=C(NS(C1=CC=C(CNC2=CC=CC([N+]([O-])=O)=C2)C=C1)(=O)=O)C(C=C3)=CC=C3N4CCC(C)(C)CC4]			54.1	4	7		
Cn1cc(C(=O)C2CCCCC2)c2cc(C(=O)NS(=O)(=O)c3ccc(COc4ccc5c(=O)cc(-c6ccccc6)oc5c4)cc3)ccc21 [SZ14TA40, O=C(NS(C1=CC=C(COC2=CC=C(C(C=C(C3=CC=CC=C3)O4)=O)C4=C2)C=C1)(=O)=O)C5=CC=C6C(C(C(C7CCCCC7)=O)=CN6C)=C5]			93.1	15	24		
O=C(NS(=O)(=O)c1ccc(CN(CCSc2ccccc2)Cc2c(F)cccc2Cl)cc1)c1cccc2ccccc12 [SZ15TA7, O=C(NS(C1=CC=C(CN(CCSC2=CC=CC=C2)CC3=C(F)C=CC=C3Cl)C=C1)(=O)=O)C4=C(C=CC=C5)C5=CC=C4]			98.4	9	8		15.4
O=C(NS(=O)(=O)c1ccc(CN(CCSc2ccccc2)Cc2c(F)cccc2Cl)cc1)c1ccc(-c2ccc(F)cc2)cc1 [SZ15TA14, O=C(NS(C1=CC=C(CN(CCSC2=CC=CC=C2)CC3=C(F)C=CC=C3Cl)C=C1)(=O)=O)C4=CC=C(C5=CC=C(F)C=C5)C=C4]			58.8	6	7		
O=C(Cn1c2ccccc2c2ccccc21)NS(=O)(=O)c1ccc(CN(CCSc2ccccc2)Cc2c(F)cccc2Cl)cc1 [SZ15TA15, O=C(NS(C1=CC=C(CN(CCSC2=CC=CC=C2)CC3=C(F)C=CC=C3Cl)C=C1)(=O)=O)CN4C(C=CC=C5)=C5C6=C4C=CC=C6]			53.6	10	9		
COc1ccc(Cc2ccc(C(=O)NS(=O)(=O)c3ccc(CN(CCSc4ccccc4)Cc4c(F)cccc4Cl)cc3)cc2)c(OC)c1OC [SZ15TA24, O=C(NS(C1=CC=C(CN(CCSC2=CC=CC=C2)CC3=C(F)C=CC=C3Cl)C=C1)(=O)=O)C4=CC=C(CC5=CC=C(OC)C(OC)=C5OC)C=C4]			70.8	15	20		
O=C(NS(=O)(=O)c1ccc(-c2ccc(C(F)(F)F)cc2)cc1)c1cccc(NCCc2ccccc2)c1 [SZ16TA44, O=C(NS(C1=CC=C(C2=CC=C(C(F)(F)F)C=C2)C=C1)(=O)=O)C3=CC(NCCC4=CC=CC=C4)=CC=C3]			98.1	4	12	31.5	
COc1cccc(CN(CCSc2ccccc2)Cc2ccc(S(=O)(=O)NC(=O)c3ccc(OC(F)(F)F)cc3)cc2)c1 [SZ17TA8, O=C(NS(C1=CC=C(CN(CCSC2=CC=CC=C2)CC3=CC(OC)=CC=C3)C=C1)(=O)=O)C4=CC=C(OC(F)(F)F)C=C4]			> 99	4	8	8.4	
COc1cccc(CN(CCSc2ccccc2)Cc2ccc(S(=O)(=O)NC(=O)Cn3c4ccccc4c4ccccc43)cc2)c1 [SZ17TA15, O=C(NS(C1=CC=C(CN(CC2=CC(OC)=CC=C2)CCSC3=CC=CC=C3)C=C1)(=O)=O)CN4C(C=CC=C5)=C5C6=C4C=CC=C6]			60.6	4	13		
COc1cccc(CN(CCSc2ccccc2)Cc2ccc(S(=O)(=O)NC(=O)c3ccc(Cc4ccc(OC)c(OC)c4OC)cc3)cc2)c1 [SZ17TA24, O=C(NS(C1=CC=C(CN(CCSC2=CC=CC=C2)CC3=CC(OC)=CC=C3)C=C1)(=O)=O)C4=CC=C(CC5=CC=C(OC)C(OC)=C5OC)C=C4]			74.1	5	9		
COc1cccc(CN(CCSc2ccccc2)Cc2ccc(S(=O)(=O)NC(=O)c3ccc(-c4ccccn4)cc3)cc2)c1 [SZ17TA25, O=C(NS(C1=CC=C(CN(CCSC2=CC=CC=C2)CC3=CC(OC)=CC=C3)C=C1)(=O)=O)C4=CC=C(C5=NC=CC=C5)C=C4]			93.6	4	7		
COc1cccc(CN(CCSc2ccccc2)Cc2ccc(S(=O)(=O)NC(=O)c3ccc(C(c4c[nH]c5ccccc45)c4c[nH]c5ccccc45)cc3)cc2)c1 [SZ17TA31, O=S(C1=CC=C(C=C1)CN(CCSC2=CC=CC=C2)CC3=CC=CC(OC)=C3)(NC(C(C=C4)=CC=C4C(C5=CNC6=C5C=CC=C6)C7=CNC8=C7C=CC=C8)=O)=O]			42.5	9	21		
Cc1cc(OCCCc2c(C(=O)NS(=O)(=O)c3ccc(C(=O)O)o3)[nH]c3c(-c4c(C)nn(C)c4C)c(Cl)ccc23)cc(C)c1Cl [compound 60, O=C(NS(C1=CC=C(C(O)=O)O1)(=O)=O)C2=C(CCCOC3=CC(C)=C(Cl)C(C)=C3)C4=CC=C(Cl)C(C5=C(C)N(C)N=C5C)=C4N2, reference compound]			> 99				
